The test concerns the target α-glucosidase from Saccharomyces cerevisiae (Saccharomyces cerevisiae, UniProt P53341). Briefly: α-glucosidase inhibition assay (pNPG substrate). It counts as biochemical. The note with it: yeast α-glucosidase; acarbose as positive control. The procedure: The α-glucosidase inhibition assay was performed according to a slightly modified, previously reported method; α-Glucosidase (0.1 U/mL) was dissolved in potassium phosphate buffer (pH 6.8) as the enzyme solution. The tested compounds (50 μL, 5 mM) dissolved in potassium phosphate buffer containing 3% DMSO were mixed with 50 μL of enzyme solution. After incubation at 37 °C for 10 min, a p-nitrophenyl-α-glucopyranoside (pNPG) solution (100 μL) (5.0 mM pNPG in 0.1 M potassium phosphate buffer (pH 6.8)) was added. The enzymatic reaction proceeded at 37 °C for 20 min and was terminated by the addition of 100 μL of 0.2 M Na2CO3. 4-nitrophenol absorption was immediately measured at 405 nm by using a microplate reader. The experiments were performed in triplicate.

The structures appear in SMILES notation. “Also recorded” adds a separate entry of the source.

α-glucosidase from Saccharomyces cerevisiae, sequence (P53341 whole entry): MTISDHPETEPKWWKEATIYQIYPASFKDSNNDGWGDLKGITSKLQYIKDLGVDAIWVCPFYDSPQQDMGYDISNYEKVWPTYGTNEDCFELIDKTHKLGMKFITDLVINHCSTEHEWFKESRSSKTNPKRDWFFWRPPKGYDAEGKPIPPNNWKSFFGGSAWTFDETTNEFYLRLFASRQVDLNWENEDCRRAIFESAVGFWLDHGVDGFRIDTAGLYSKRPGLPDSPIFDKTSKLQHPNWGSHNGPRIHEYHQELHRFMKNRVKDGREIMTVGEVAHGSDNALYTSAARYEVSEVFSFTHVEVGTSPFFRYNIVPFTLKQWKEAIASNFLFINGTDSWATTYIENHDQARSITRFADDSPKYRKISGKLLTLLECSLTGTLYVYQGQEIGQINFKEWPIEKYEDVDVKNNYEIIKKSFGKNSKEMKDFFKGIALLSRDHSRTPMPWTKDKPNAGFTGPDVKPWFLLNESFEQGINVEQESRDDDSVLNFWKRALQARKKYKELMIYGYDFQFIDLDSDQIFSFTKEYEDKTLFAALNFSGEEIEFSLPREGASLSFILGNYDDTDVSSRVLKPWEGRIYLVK

As to `CC(=O)O[C@@]1(C)C[C@@H](OC(=O)C2=CO[C@@H](O[C@@H]3O[C@H](CO)[C@@H](O)[C@H](O)[C@H]3OC(=O)/C=C\c3ccc(O)cc3)[C@@H]3[C@H](C)CC[C@H]23)[C@@H]2C=CO[C@@H](O[C@@H]3O[C@H](CO)[C@@H](O)[C@H](O)[C@H]3O)[C@@H]21` [Compound 4, 2′′′-O-(Z)-p-coumaroyl caryocanoside B], the “α-glucosidase inhibitory effect (in words)” value is listed as “stronger inhibitory effects against α-glucosidase than the positive control; also recorded: potent effect”.
In the case of `CC(CO)c1cc2c(c(O)c1O[C@@H]1O[C@H](CO)[C@@H](O)[C@H](O)[C@H]1O)[C@@]1(C)CCC[C@](C)(CO[C@@H]3O[C@H](CO)[C@@H](O)[C@H](O)[C@H]3O)[C@@H]1CC2` (some centres unmarked) [Compound 10, ajugaside A] it was “stronger inhibitory effects against α-glucosidase than the positive control”.

These data come from paper PMC6273012, “New Iridoid Glucosides from Caryopteris incana (Thunb.) Miq. and Their α-Glucosidase Inhibitory Activities” (Molecules, 2016).
